Data from patent publication US12390437B2, “Itaconic acid derivatives and uses thereof intreating an inflammatory disease or a disease associated with an undesirable immune response” (Sitryx Therapeutics Limited, priority 2019, dated 2025).
Structures can show the parent of a compound that is named as a salt.

Key:
[1] = tested on: IL-6 cytokine output from THP-1s; test: THP-1 AlphaLISA IL-6 cytokine assay; assay type: cell-based, human; conditions: Homo sapiens; PMA-differentiated THP-1 cells, LPS 24 hr then Nigericin 1 hour
Procedure, shortened: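 THP-1 cells, PMA-differentiated 72 h; 30 min compound pre-incubation; LPS 24 h; nigericin 1 h; 37 °C/5% CO2. Supernatants read by AlphaLISA kit. IC50 from % inhibition vs concentration, normalised to +LPS (high) and −LPS (low) controls.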

[2] = Mouse pharmacokinetic study, intravenous dosing; assay type: in vivo; conditions: 10 mg/kg i.v.; for concentration at 0.05 h / concentration at 0.133 h / concentration at 0.25 h / concentration at 0.5 h / concentration at 1 h / concentration at 2 h / concentration at 4 h / concentration at 6 h / concentration at 8 h: male, C57BL/6, mouse, iv, plasma, read-out: Parent compound concentration following intravenous administration
Procedure, shortened: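 Male C57BL/6 mice (6-8 weeks, fed ad libitum); IV tail-vein 10 mg/kg in 10% DMSO/25% HP-β-CD, sampled 3 min–8 h; oral gavage 100 mg/kg in 5% DMSO/0.5% HPMC+0.1% Tween 80, sampled 5 min–24 h. N=3/time point, semi-serial facial-vein bleeds into K2EDTA; plasma levels by LC-MS/MS.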

[3] = Mouse pharmacokinetic study, oral administration; assay type: in vivo; conditions: for concentration at 0.083 h / concentration at 0.25 h / concentration at 0.5 h / concentration at 1 h / concentration at 2 h / concentration at 4 h / concentration at 6 h / concentration at 8 h / concentration at 24 h: male, C57BL/6, mouse, plasma, po, 100 mg/kg, male C57BL/6 mice, oral gavage 100 mg/kg; for concentration at 0.083 h: read-out: Parent compound concentrations following oral administration, Time 0.083 h; for concentration at 0.25 h: read-out: Parent compound concentrations following oral administration, Time 0.25 h; for concentration at 0.5 h: read-out: Parent compound concentrations following oral administration, Time 0.5 h; for concentration at 1 h: read-out: Parent compound concentrations following oral administration, Time 1 h; for concentration at 2 h: read-out: Parent compound concentrations following oral administration, Time 2 h; for concentration at 4 h: read-out: Parent compound concentrations following oral administration, Time 4 h; for concentration at 6 h: read-out: Parent compound concentrations following oral administration, Time 6 h; for concentration at 8 h: read-out: Parent compound concentrations following oral administration, Time 8 h; for concentration at 24 h: read-out: Parent compound concentrations following oral administration, Time 24 h
Protocol: Pharmacokinetic studies were carried out in 6-8-week-old male C57BL/6 mice having free access to food and water. Intravenous dosing was conducted at 10 mg/kg (5 mL/kg; vehicle: 10% DMSO-90% (25% HP-13-CD in water)) via tail vein injection, with sampling at 3 min, 8 min, 15 min, 30 min, 1, 2, 4, 6 and 8 hours, i.e., 9 time points in total (N=3/time point), using semi-serial bleeding for plasma. Oral compound administration, via gavage, was carried out at 100 mg/kg (10 mL/kg; vehicle: 5% DMSO-95% (0.5% HPMC+0.1% Tween 80 in water)), with sampling at 5 min, 15 min, 30 min, 1, 2, 4, 6, 8 and 24 hours, i.e., 9 time points in total (N=3/time point), using semi-serial bleeding for plasma.
For both intravenous and oral routes, the mice were restrained manually at the designated time points, with ca. 110 μL of blood being taken into K2EDTA tubes via the facial vein. Blood samples were put on ice and centrifuged to obtain plasma samples from which the concentration at each time point was measured by LC-MS/MS.

[4] = Hepatocyte stability assay (human); assay type: in vitro ADME; conditions: cryopreserved hepatocytes, 10 μM compound, 0.5×10^6 cells/mL, 60 minutes, read-out: T½
From the text: (§1) Defrosted cryo-preserved hepatocytes (viability >70%) are used to determine the metabolic stability of a compound via calculation of intrinsic clearance (Clint; a measure of the removal of a compound from the liver in the absence of blood flow and cell binding). Clearance data are particularly important for in vitro work as they can be used in combination with in vivo data to predict the half-life and oral bioavailability of a drug.
(§2) The metabolic stability in hepatocytes assay involves a time-dependent reaction using both positive and negative controls. The cells must be pre-incubated at 37° C. then spiked with test compound (and positive control); samples taken at pre-determined time intervals are analysed to monitor the change in concentration of the initial drug compound over 60 minutes. A buffer incubation reaction (with no hepatocytes present) acts as a negative control and two cocktail solutions, containing compounds with known high and low clearance values (verapamil/7-hydroxycoumarin and propranolol/diltiazem), act as positive controls. • 1. The assay is run with a cell concentration of 0.5×10^6 cells/mL in Leibovitz buffer. • 2. All compounds and controls are run in duplicate. • 3. Compound concentration is 10 μM. • 4. All compounds and controls are incubated with both cells and buffer to show turnover is due to hepatic metabolism. • 5. All wells on the incubation plate will have 326.7 μL of either cells or buffer added. • 6. Prior to assay, cell and buffer-only incubation plates are preincubated for 10 mins at 37° C. • 7. The assay is initiated by adding compounds, 3.3 μL of 1 mM in 10% DMSO-90% Buffer; final DMSO concentration is 0.1%. • 8. Samples are taken at regular timepoints (0, 5, 10, 20, 40, 60 min) until 60 mins. • 9. Sample volume is 40 μL and it is added to 160 μL of crash solvent (acetonitrile with internal standard) and stored on ice. • 10. At the end of the assay, the crash plates are centrifuged at 3500 rpm for 20 mins at 4° C. • 11. 80 μL of clear supernatant is removed and mixed with 80 μL of deionised water before being analysed by LC-MS/MS.
(§3) Raw LC-MS/MS data are exported to, and analysed in, Microsoft Excel for determination of intrinsic clearance. The percentage remaining of a compound is monitored using the peak area of the initial concentration as 100%. Intrinsic clearance and half-life values are calculated using a graph of the natural log of percentage remaining versus the time of reaction in minutes. Half-life (min) and intrinsic clearance (Clint in μL min^−1 10^−6 cells) values are calculated using the gradient of the graph (the elimination rate constant, k) and Equations 1 and 2.

[5] = tested on: hepatocytes; test: Hepatocyte stability assay (human); assay type: in vitro ADME; conditions: 10 μM compound, 0.5×10^6 cells/mL, 60 minutes
From the text: as §1, §2, §3

SMILES | IC50 [1] | concentration at 0.05 h [2] | concentration at 0.133 h [2] | concentration at 0.25 h [2] | concentration at 0.5 h [2] | concentration at 1 h [2] | concentration at 2 h [2] | concentration at 4 h [2] | concentration at 6 h [2] | concentration at 8 h [2] | concentration at 0.083 h [3] | concentration at 0.25 h [3] | concentration at 0.5 h [3] | concentration at 1 h [3] | concentration at 2 h [3] | concentration at 4 h [3] | concentration at 6 h [3] | concentration at 8 h [3] | concentration at 24 h [3] | further results
C=C(CC(=O)O[C@@H](CCCCCC)C(F)(F)F)C(=O)OCC(=O)O [Example 182, (S)-2-((2-methylene-4-oxo-4-((1,1,1-trifluorooctan-2-yl)oxy)butanoyl)oxy)acetic acid] | – | 40800 ng/mL | 17900 ng/mL | 6740 ng/mL | 2890 ng/mL | 642 ng/mL | 88 ng/mL | 20 ng/mL | 6 ng/mL | < 4 ng/mL | 65900 ng/mL | 46800 ng/mL | 27900 ng/mL | 13500 ng/mL | 5390 ng/mL | 1370 ng/mL | 1280 ng/mL | 417 ng/mL | 5.9 ng/mL | half-life at 10 μM [4]: 28 min; CIint (μL min^−1 10^−6 cells) [5]: 60 μL min^−1 10^−6 cells
C=C(CC(=O)O[C@H](CC)CCCCC)C(=O)OCC(=O)O [Example 178, (R)-2-(2-methylene-4-(octan-3-yloxy)-4-oxobutanoyloxy)acetic acid] | – | 33400 ng/mL | 15500 ng/mL | 5680 ng/mL | 2850 ng/mL | 594 ng/mL | 61 ng/mL | 8.2 ng/mL | < 4 ng/mL | < 4 ng/mL | 67100 ng/mL | 27100 ng/mL | 27900 ng/mL | 11000 ng/mL | 3660 ng/mL | 1460 ng/mL | 2240 ng/mL | 639 ng/mL | < 4 ng/mL | –
C=C(CC(=O)OC)C(=O)OC [dimethyl itaconate, reference compound] | 100 µM | 874 ng/mL | < 24 ng/mL | < 24 ng/mL | < 24 ng/mL | < 24 ng/mL | < 24 ng/mL | < 24 ng/mL | < 24 ng/mL | < 24 ng/mL | < 24 ng/mL | < 24 ng/mL | < 24 ng/mL | < 24 ng/mL | < 24 ng/mL | < 24 ng/mL | < 24 ng/mL | < 24 ng/mL | < 24 ng/mL | Quantifiability in plasma following intravenous dosing ([2]; mouse): only quantifiable at one timepoint; Quantifiability in plasma following oral administration ([3]; mouse, 100 mg/kg oral): below the limit of quantification at all timepoints
C=C(CC(=O)OCCCCCC)C(=O)OCC(=O)O [Example 94, 2-((4-(hexyloxy)-2-methylene-4-oxobutanoyl)oxy)acetic acid] | – | 18000 ng/mL | 6070 ng/mL | 2440 ng/mL | 550 ng/mL | 42 ng/mL | 1.9 ng/mL | 1.4 ng/mL | < 0.8 ng/mL | < 0.8 ng/mL | 27800 ng/mL | 12600 ng/mL | 8220 ng/mL | 3110 ng/mL | 2140 ng/mL | 392 ng/mL | 196 ng/mL | 90 ng/mL | < 0.8 ng/mL | half-life at 10 μM [4]: 85 min; CIint (μL min^−1 10^−6 cells) [5]: 16 μL min^−1 10^−6 cells
C=C(CC(=O)OCCCCCCCC)C(=O)OCCC(F)(F)F [Example 3, 4-octyl 1-(3,3,3-trifluoropropyl) 2-methylenesuccinate] | 56.2 µM | – | – | – | – | – | – | – | – | – | – | – | – | – | – | – | – | – | – | –

The next lines start with results.

IC50 [1] | concentration at 0.05 h [2] | concentration at 0.133 h [2] | concentration at 0.25 h [2] | concentration at 0.5 h [2] | concentration at 1 h [2] | concentration at 2 h [2] | concentration at 4 h [2] | concentration at 6 h [2] | concentration at 8 h [2] | concentration at 0.083 h [3] | concentration at 0.25 h [3] | concentration at 0.5 h [3] | concentration at 1 h [3] | concentration at 2 h [3] | concentration at 4 h [3] | concentration at 6 h [3] | concentration at 8 h [3] | concentration at 24 h [3] | SMILES | further results
2.9 µM | – | – | – | – | – | – | – | – | – | – | – | – | – | – | – | – | – | – | C=C(CC(=O)OCCCCCCCC)C(=O)OCCS(C)(=O)=O [Example 2, 1-(2-(methylsulfonyl)ethyl) 4-octyl 2-methylenesuccinate] | –
2.2 µM | – | – | – | – | – | – | – | – | – | – | – | – | – | – | – | – | – | – | C=C(CC(=O)OCCCCCCCC)C(=O)OCCN1C(=O)CCC1=O [Example 9, 1-(2-(2,5-dioxopyrrolidin-1-yl)ethyl) 4-octyl 2-methylenesuccinate] | –
9.3 µM | – | – | – | – | – | – | – | – | – | – | – | – | – | – | – | – | – | – | COC(=O)/C=C/C(=O)OC [dimethyl fumarate, reference compound] | –
3.6 µM | – | – | – | – | – | – | – | – | – | – | – | – | – | – | – | – | – | – | C=C(CC(=O)OCCCCCCCC)C(=O)OC1COC1 [Example 4, 4-octyl 1-(oxetan-3-yl) 2-methylenesuccinate] | –
6 µM | – | – | – | – | – | – | – | – | – | – | – | – | – | – | – | – | – | – | C=C(CC(=O)OCCCCCCCC)C(=O)OCCC#N [Example 1, 1-(2-cyanoethyl) 4-octyl 2-methylenesuccinate] | –
